Results from US20080227738A1, “Compositions and methods for cell dedifferentiation and tissue regeneration” (University of Utah Research Foundation, priority 2000, published 2008).

Key:
C2C12 myotubes = experiment: Characterization of RNLE activity: pretreated extract, BrdU S phase reentry in C2C12 myotubes; assay type: cell-based, mouse; conditions: C2C12 myotubes with RNLE
Method: C2C12 myotubes were plated at low density in DM as described above. Regeneration extract was treated in one of three ways: (1) boiled for 5 minutes; (2) digested with 1% trypsin for 30 minutes at 37° C.; or (3) taken through several freeze/thaw cycles. In three separate experiments, the treated extracts were applied to cultured myotubes at a concentration of 0.3 mg/ml with media and extract changed daily. Immediately after the extract was digested with 1% trypsin, the trypsin was inactivated by dilution in DM in which the cells were cultured. In the freeze/thaw experiments, extract activity was tested after both 2 and 3 freeze/thaw cycles. The effect of the pretreated extracts on myotube S phase reentry was assessed after 4 days of treatment by performing BrdU incorporation assays. The results were compared to BrdU incorporation in myotubes cultured in DM containing RNLE (positive control) and myotubes cultured in DM alone or DM containing nonRNLE (negative controls).
The dedifferentiation signal(s) found in the RNLE could belong to a number of different types of biomolecules, including proteins, lipids, nucleic acids, and polysaccharides. To characterize the nature of one or more of the active components of the RNLE, the inventors subjected the extract to a number of different conditions. […]

[1] = test system: zebrafish caudal fin regenerate; experiment: Zebrafish caudal fin regeneration under Fgfr1 inhibitor treatment; assay type: in vivo
Method: Zebrafish 3-6 months of age were obtained from EKKWill Waterlife Resources (Gibsonton, Fla.) and used for caudal fin amputations. Fish were anaesthetized in tricaine and amputations were made using a razor blade, removing one-half of the fin. Animals were allowed to regenerate for various times in water kept at 31-33° C.; these temperatures facilitate more rapid regeneration than more commonly used temperatures of 25-28° C. (Johnson and Weston, 1995). Fish were then anaesthetized and the fin regenerate was removed for analyses.
(§1) SU5402 (Ri; SUGEN, South San Francisco, Calif.) was dissolved in dimethylsulfoxide (DMSO) and added to fish water at a final concentration of 1.7 μM or 17 μM (0.01% DMSO). Up to 10 fish were treated in one liter of water, and tanks were maintained in the dark at 31-33° C. with SU5402 solutions replaced every 24 hours.
To determine if signaling through Fgfrl is required for regeneration, zebrafish were treated for 96 hours with Ri immediately following amputation. Treatment of zebrafish with 1.7 μM Ri (0.5 mg/liter) inhibited fin regeneration to varying degrees.
To determine if a blastema forms in the absence of Fgf signaling, Ri-treated fin regenerates were examined morphologically.
Because wfgf and fgfr1 expression domains were maintained in the fin regenerate during outgrowth, and as blastemal cell BrdU incorporation was blocked by Ri, Fgf signaling likely participates in blastemal maintenance/regenerative outgrowth. To test this hypothesis, the effects of Ri on ongoing regenerates were examined.

zebrafish fin regenerate [2] = experiment: BrdU incorporation in regenerating zebrafish fins; assay type: in vivo; conditions: 17 μM
Method: BrdU was dissolved in PBS and fish were treated at a final concentration of 100 μg/ml. For one experiment, fins were amputated and allowed to regenerate for 18 or 24 hours in the absence or presence of 17 μM Ri, with BrdU present during the final 6 hours of regeneration. To test the effects of Ri on proliferation in the established blastema, fins were first allowed to regenerate for 40 hours. Then, untreated fish regenerated an additional 2 hours before a 6 hour incubation with BrdU, while Ri-treated fish underwent a 2 hour R1 preincubation period before a 6 hour period with both Ri and BrdU.
Fins were collected and fixed in 70% ethanol/2 mM glycine overnight, and 10 μm sections were made from frozen blocks. These sections were stained for BrdU incorporation using a detection kit (Roche; Basel, Switzerland), and counterstained with hematoxylin. Sections from untreated and Ri-treated fins were simultaneously processed and developed. […]
BrdU incorporation was used to analyze DNA replication and cellular proliferation. […] To determine if blastemal cells underwent DNA replication in the presence of Ri, BrdU incorporation in fins briefly treated with Ri during regenerative outgrowth (40-48 hours postamputation) was analyzed. […]

zebrafish fin regenerate [3] = experiment: Whole mount in situ hybridization of marker genes in zebrafish fin regenerates; assay type: in vivo
From the text: To generate antisense RNA probes with a dioxigenin labeling kit (Boehringer Mannheim), a 2.8 kb fgfr1 cDNA fragment, a 1.7 kb fgfr2 cDNA fragment, a 0.6 kb fgfr3 cDNA fragment, a 1.5 kb fgfr4 cDNA fragment (Thisse et al., 1995), a 1.2 kb msxb cDNA fragment, a 2.0 kb msxc cDNA (Akimenko et al., 1995), a 0.6 kb fgf8(ace) cDNA fragment (Reifers et al., 1998), a 2.2 kb fgf4.1 cDNA (Draper et al., 1999), a 2.4 kb wfgf cDNA (Draper et al., 1999), a 3.8 kb β-catenin cDNA (Kelly et al., 1995), a 2.6 kb flkl cDNA fragment (Liao et al., 1997), and a 1.8 kb shh cDNA (Krauss et al., 1993) were used. Fragments containing zebrafish fgfr cDNA sequences were isolated by degenerate PCR using known fgfr tyrosine kinase domain sequences of other species. The assignment of fgfr genes was based on homology comparisons; these sequences have been deposited in Genbank.
Fin regenerates were fixed overnight at 4° C. in 4% paraformaldehyde in phosphate-buffered saline (PBS), washed briefly in 2 changes of PBS, and transferred to methanol for storage at −20° C. Fins were rehydrated stepwise through ethanol in PBS and then washed in 4 changes of PBS-0.1% polyoxyethylenesorbitan monolaurate (Tween-20; PBT). Then, fins were incubated with 10 μg/ml proteinase K in PBT for 30 minutes and rinsed twice in PBT before 20 minutes refixation. After five washes with PBT, fins were prehybridized at 65° C. for one hour in buffer consisting of 50% formamide, 5×SSC (750 mM NaCl, 75 mM sodium citrate, pH 7.0), 0.1% Tween-20, 50 μg/ml heparin, and 500 μg/ml yeast RNA (pH to 6.0 with citric acid), and then hybridized overnight in hybridization buffer including 0.5 μg/ml dioxigenin-labeled RNA probe. Fins were washed at 65° C. for 10 minutes each in 75% hybridization buffer/25% 2×SSC, 50% hybridization buffer/50% 2×SSC, and 25% hybridization buffer/75% 2×SSC, followed by 2 washes for 30 minutes each in 0.2×SSC at 65° C. Further washes for 5 minutes each were done at room temperature in 75% 0.2×SSC/25% PBT, 50% 0.2×SSC/50% PBT, and 25% 0.2×SSC/75% PBT. After a one hour incubation period in PBT with 2 mg/ml bovine serum albumin, fins were incubated for 2 hours in the same solution with a 1:2000 dilution of fin-preabsorbed, anti-dioxigenin antibody coupled to alkaline phosphatase (Boehringer Mannheim). For the alkaline phosphatase reaction, fins were first washed 3 times in reaction buffer (100 mM Tris-HCl pH 9.5, 50 mM MgCl2, 100 mM NaCl, 0.1% Tween-20, 1 mM levamisol) and then incubated in reaction buffer with 1× nitro blue terazolium/5-bromo-4-chloro-3-indolyl-phosphate (NBT/BCIP) substrate. In general, positive signals were obtained in 0.5-3 hours. Following the staining reaction, fins were washed in several changes of PBT and fixed in 4% paraformaldehyde in PBS. To obtain sections of fin regenerates, fins were first mounted in 1.5% agarose/5% sucrose and then incubated in 30% sucrose overnight. Frozen blocks were sectioned at 14 μm and observed using Nomarski optics.
For each probe, at least 7 fins were examined for expression at 0, 6, 12, 18, 24, 48, and 96 hours post-amputation. For 18, 24, and 48 hour timepoints with fgfr1, msxb, msxc, and wfgf probes, 25-100 fins were examined in several different experiments. Experiments with sense strand RNA probes were performed with initial antisense experiments to estimate the specificity of signals. To assess gene expression in pharmacologically treated fins, an equal number of untreated fins were also examined.
To investigate the molecular effects of this outgrowth inhibition by Ri, marker expression was examined following a 24 hour R1 application period. […] Similar effects on msxc expression were observed (n=8). msxb expression was not detected in 24 or 48 hour fin regenerates exposed to R1 for 48 hours (n=18). Thus, Fgf signaling is required for blastema maintenance and regenerative outgrowth, but is not crucial for other processes including melanocyte migration or bone deposition. […]

zebrafish embryos = experiment: Application to developing zebrafish embryos; assay type: in vivo; conditions: at the IC50 concentration (printed 10-20 μl)
Method: The IC50 of Ri with respect to Fgfrl activity in mammalian cells was shown previously to be […] (Mohammadi et al., 1997). […] Such embryos appear remarkably similar to those injected with mRNA encoding a dominant-negative Fgfrl (Griffin et al., 1995).

[4] = Tolerability of inhibitor solution in adult zebrafish; assay type: in vivo; conditions: 1.7 μM or 17 μM in fish water, 0.01% DMSO
Method: as §1

[5] = test system: platelet-derived growth factor receptor; conditions: mammalian cells; cited from earlier work
[6] = target: T1, epidermal growth factor receptor (Homo sapiens, UniProt P00533); conditions: mammalian cells; cited from earlier work
T1 construct: host or cells: mammalian cells (not specified)
T1 sequence (P00533 25-1210): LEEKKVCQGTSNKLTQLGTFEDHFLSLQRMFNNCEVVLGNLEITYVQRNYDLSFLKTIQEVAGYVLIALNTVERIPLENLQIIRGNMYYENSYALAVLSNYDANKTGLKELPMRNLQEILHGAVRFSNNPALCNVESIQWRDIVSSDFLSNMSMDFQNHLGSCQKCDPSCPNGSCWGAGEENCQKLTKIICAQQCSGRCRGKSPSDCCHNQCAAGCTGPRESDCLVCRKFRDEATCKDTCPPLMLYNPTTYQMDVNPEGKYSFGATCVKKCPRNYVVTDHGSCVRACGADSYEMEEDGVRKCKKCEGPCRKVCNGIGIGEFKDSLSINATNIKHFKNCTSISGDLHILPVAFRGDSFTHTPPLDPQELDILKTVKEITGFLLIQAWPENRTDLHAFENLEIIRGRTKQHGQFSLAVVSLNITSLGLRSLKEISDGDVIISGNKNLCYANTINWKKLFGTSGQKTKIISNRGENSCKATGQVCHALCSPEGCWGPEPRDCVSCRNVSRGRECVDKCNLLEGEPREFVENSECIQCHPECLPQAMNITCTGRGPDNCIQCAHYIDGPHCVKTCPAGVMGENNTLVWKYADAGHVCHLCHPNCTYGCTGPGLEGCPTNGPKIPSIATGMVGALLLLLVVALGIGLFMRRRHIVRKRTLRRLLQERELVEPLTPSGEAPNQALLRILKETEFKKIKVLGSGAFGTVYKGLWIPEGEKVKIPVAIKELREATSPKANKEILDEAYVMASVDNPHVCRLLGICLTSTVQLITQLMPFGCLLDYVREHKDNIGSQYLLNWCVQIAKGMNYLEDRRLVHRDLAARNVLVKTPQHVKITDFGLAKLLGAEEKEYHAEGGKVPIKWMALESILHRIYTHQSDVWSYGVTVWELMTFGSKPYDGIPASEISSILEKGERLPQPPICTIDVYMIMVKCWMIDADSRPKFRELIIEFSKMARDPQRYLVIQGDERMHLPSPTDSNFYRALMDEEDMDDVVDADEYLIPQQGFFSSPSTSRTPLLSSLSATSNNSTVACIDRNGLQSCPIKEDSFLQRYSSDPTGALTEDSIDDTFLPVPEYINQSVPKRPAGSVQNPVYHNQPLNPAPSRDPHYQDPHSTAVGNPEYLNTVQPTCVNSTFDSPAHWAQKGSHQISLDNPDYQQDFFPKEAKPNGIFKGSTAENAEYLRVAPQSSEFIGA

insulin receptor = target: T2, insulin receptor (Homo sapiens, UniProt P06213); conditions: mammalian cells; cited from earlier work
T2 construct: host or cells: mammalian cells (not specified)
T2 sequence (P06213 28-1382): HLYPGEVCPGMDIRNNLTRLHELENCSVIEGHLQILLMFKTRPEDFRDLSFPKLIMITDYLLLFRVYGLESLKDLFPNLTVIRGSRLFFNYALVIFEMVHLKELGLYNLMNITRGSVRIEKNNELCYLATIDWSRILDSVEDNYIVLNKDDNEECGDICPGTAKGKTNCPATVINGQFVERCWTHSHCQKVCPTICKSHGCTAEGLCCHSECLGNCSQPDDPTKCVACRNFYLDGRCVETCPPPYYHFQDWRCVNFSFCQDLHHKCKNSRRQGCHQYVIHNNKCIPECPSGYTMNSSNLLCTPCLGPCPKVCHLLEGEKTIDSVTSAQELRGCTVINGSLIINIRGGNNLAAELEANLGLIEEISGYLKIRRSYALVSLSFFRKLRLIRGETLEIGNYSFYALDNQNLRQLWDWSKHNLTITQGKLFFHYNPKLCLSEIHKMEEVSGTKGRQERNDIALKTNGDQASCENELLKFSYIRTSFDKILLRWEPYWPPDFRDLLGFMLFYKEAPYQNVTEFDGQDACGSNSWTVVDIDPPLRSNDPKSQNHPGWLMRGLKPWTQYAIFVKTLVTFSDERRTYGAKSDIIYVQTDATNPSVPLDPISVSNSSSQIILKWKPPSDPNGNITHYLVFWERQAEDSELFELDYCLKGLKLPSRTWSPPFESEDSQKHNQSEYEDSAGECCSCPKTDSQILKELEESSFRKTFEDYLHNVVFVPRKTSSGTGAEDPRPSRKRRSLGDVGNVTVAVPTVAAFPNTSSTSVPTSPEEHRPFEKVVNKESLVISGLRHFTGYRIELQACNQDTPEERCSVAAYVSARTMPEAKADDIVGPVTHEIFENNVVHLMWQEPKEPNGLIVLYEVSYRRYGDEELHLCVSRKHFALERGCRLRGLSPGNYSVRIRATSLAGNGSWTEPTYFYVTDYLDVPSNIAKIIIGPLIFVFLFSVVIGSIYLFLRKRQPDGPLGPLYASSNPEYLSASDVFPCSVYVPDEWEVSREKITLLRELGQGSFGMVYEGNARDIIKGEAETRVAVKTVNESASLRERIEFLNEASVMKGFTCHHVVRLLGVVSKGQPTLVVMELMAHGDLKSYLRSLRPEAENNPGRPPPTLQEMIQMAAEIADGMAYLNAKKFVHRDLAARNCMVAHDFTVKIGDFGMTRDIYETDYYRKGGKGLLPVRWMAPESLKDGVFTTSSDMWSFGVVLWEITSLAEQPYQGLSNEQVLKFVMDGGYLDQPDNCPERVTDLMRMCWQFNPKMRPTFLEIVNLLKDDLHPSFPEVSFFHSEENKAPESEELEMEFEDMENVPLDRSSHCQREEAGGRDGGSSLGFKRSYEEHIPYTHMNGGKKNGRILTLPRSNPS

serine threonine kinases = conditions: cited from earlier work
[7] = target: Flkl, a vascular endothelial growth factor receptor (Homo sapiens, UniProt P35968); conditions: cited from earlier work
Sequence of Flkl, a vascular endothelial growth factor receptor (P35968 20-1356): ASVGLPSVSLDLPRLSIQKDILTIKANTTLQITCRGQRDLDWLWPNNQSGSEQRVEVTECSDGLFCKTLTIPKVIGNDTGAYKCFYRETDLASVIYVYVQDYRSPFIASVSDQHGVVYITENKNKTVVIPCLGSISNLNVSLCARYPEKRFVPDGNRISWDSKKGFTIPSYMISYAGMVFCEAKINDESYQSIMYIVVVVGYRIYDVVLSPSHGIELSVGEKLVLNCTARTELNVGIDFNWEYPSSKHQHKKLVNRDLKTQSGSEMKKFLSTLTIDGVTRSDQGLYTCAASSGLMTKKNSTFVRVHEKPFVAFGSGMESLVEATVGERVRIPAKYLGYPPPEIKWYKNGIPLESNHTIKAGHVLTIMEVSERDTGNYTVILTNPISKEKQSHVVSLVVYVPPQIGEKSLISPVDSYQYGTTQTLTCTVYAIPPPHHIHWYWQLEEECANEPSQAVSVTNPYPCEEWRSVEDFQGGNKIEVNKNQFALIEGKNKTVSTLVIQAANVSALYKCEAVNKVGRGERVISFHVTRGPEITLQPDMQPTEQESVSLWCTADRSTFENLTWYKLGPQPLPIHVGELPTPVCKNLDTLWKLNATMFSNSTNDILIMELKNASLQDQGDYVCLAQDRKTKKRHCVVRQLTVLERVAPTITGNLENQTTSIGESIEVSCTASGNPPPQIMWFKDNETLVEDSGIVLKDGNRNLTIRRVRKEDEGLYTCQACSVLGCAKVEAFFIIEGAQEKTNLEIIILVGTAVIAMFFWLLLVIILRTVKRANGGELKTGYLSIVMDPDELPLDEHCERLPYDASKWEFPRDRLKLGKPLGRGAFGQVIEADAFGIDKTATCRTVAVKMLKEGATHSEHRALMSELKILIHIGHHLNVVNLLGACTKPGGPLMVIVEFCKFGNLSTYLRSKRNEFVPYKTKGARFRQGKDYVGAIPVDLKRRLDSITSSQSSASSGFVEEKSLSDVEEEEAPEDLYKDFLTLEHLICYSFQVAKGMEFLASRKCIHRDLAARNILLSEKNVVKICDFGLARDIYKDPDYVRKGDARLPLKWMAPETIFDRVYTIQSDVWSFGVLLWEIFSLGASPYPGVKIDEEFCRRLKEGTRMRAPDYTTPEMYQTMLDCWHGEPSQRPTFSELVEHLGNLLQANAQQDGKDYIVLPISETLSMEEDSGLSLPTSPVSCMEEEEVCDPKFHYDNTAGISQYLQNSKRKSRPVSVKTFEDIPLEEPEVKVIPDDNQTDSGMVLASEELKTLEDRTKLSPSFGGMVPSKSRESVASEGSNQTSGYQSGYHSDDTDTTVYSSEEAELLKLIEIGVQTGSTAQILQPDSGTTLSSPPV

[8] = 1.7 μM (0.5 mg/liter), 96 hours from amputation, of 10 fins examined
[9] = Ri-treated fin regenerates, morphology
[10] = fins regenerated normally 24 or 48 hours, then 24 hour application, of 18 treated fins
[11] = treated from amputation, msxb: 21 fins, msxc: 8 fins

In the case of `Cc1c[nH]c(/C=C2\C(=O)Nc3ccccc32)c1CCC(=O)O` [SU5402], the “BrdU: effect of Fgfr inhibitor on RNLE S phase reentry” value (C2C12 myotubes) was “No effect”, the “Fins that regenerated normally” value [1, 8] was 4 and the “Fins with a regenerative block” value [1, 8] was “one”. For the same molecule, the “Fins with slight regenerative defects” value [1, 8] was 5, the Fin regeneration ([1]; 17 μM (5 mg/liter), 96 hours from amputation, all animals, n=9) was “complete regenerative blocks” and the Blastemal morphogenesis [1, 9] was “did not occur”. For the same molecule, the “Wound epidermis over the fin stumps” value [1, 9] was “consistently formed”, the “Outgrowth of ongoing regenerates” value ([1]; treatment of 24-72 hour fin regenerates) was “inhibited further outgrowth” and the New bone deposition ([1]; treatment of ongoing fin regenerates) was “not interrupted”. The “Proximal mesenchymal cell BrdU labeling” value (zebrafish fin regenerate [2]; 12-18 hours and 18-24 hours postamputation) was “Normal”, the “Blastemal cell incorporation of BrdU” value (zebrafish fin regenerate [2]; brief treatment during regenerative outgrowth, 40-48 hours postamputation) was “greatly reduced” and the “msxb expression after 48 hour exposure” value (zebrafish fin regenerate [3]; 24 or 48 hour fin regenerates exposed for 48 hours, n=18) was “not detected”. The “Fins with detectable shh transcripts” value (zebrafish fin regenerate [3]; 48 or 72 hour fin regenerates treated for 24 hours, of 18 fins) was 0, the Epidermal wfgf expression (zebrafish fin regenerate [3]; 48 or 72 hour regenerates, 24 hour application, n=16) was “No significant reduction” and the β-catenin expression (zebrafish fin regenerate [3]; Ri-treated fins, n=7) was “normal”. The “Fins with low levels of msxb expression” value (zebrafish fin regenerate [3]; [10]) was 8, the “Fins with no detectable msxb expression” value (zebrafish fin regenerate [3]; [10]) was 10 and the “msxb and msxc expression, 24 hour regenerates” value (zebrafish fin regenerate [3]; [11]) was “extremely low or undetectable”. For the same molecule, the “msxb and msxc expression, 48 hour regenerates” value (zebrafish fin regenerate [3]; [11]) was “undetectable”, the “Effect on developing zebrafish embryos” value (zebrafish embryos) was “dramatic truncation of posterior structures” and the “Survival and behavior in inhibitor solution” value [4] was “survived normally and demonstrated no unusual behavior”. For the same molecule, the “Concentration at which platelet-derived growth factor receptor is not blocked” value [5] was “greater than 50 μM”, the “Concentration at which epidermal growth factor receptor is not blocked” value [6] was “greater than 50 μM” and the “Concentration at which insulin receptor is not blocked” value (insulin receptor) was “greater than 50 μM”. For the same molecule, the “Effects on activities of numerous serine threonine kinases” value (serine threonine kinases) was “no effects” and the “Concentration that inhibits Flkl” value [7] was 10 to 20 µM.
